Data: a melting point compilation (Tetko et al.; mined from patent text by program, amines drawn as free bases though some values may be those of a salt)

| melting point [°C] | Structure (SMILES) |
| --- | --- |
| 209 to 213 | Cc1cccc(C)c1/N=C1\SCC(=O)N1/N=C/c1ccc(-c2ncn(-c3ccc(OC(F)(F)F)cc3)n2)cc1 |
| 135 to 136 | N#CCCNC(=O)c1cccc(-c2ccc3c(c2)C(c2cc(Cl)ccc2Cl)CC3)c1 (centres undefined) |
| 169 to 170 | Cc1c(Cl)ccc2c1N=C(c1ccncc1)OC2c1ccc(Br)cc1 (centres undefined) |
| 196 to 198 | COC(=O)c1cc2nccnc2cc1NC(=O)OC(C)(C)C |
| 215 | CCOc1cc(-c2cc(C(F)(F)F)n3ncc(C(=O)Nc4cccc(S(C)(=O)=O)c4)c3n2)ccc1C(F)(F)F |
| 75 to 79 | COC(=O)C(C#N)CC(=O)c1ccc(Cl)cc1 (centres undefined) |
| 135 to 136 | O=C(O)c1ccc(CCCc2ccccc2Cc2ccccc2)cc1 |
| > 280 | OC(c1ccccc1)c1ccc2nc3ccc(C(O)c4ccccc4)cc3c(-c3ccccc3)c2c1 (centres undefined) |
| 216 to 217 | CCn1c2c(c3ccccc31)Cc1c(CO)c(CO)c(C)n1C2 |
| 143 | N#CCCCc1ccccc1CC1C(=O)CCCC1=O |
| 174 to 175 | Cc1c(S(C)(=O)=O)cc([N+](=O)[O-])c(Cl)c1[N+](=O)[O-] |
| 92 to 95 | O=c1[nH]c2ccccc2n1OCc1ccccc1 |
| 126 to 129 | CC(=NC(=Nc1ccccc1)N1CCOCC1)NCc1ccccc1 |
| 206 | CN(C)C(=O)C1CN(C)c2nc3cc(F)c(F)cc3cc2C1=O (centres undefined) |
| 114 to 115 | COc1cccc(C(O)c2cccnc2Cl)c1 (centres undefined) |
| 105 to 106 | Cc1cc(Br)cnc1CCCNc1ncc(Cc2cccnc2)cc1[N+](=O)[O-] |
| 191 to 192 | CCCOc1ccc(S(=O)(=O)N2CCN(CC)CC2)cc1C(=O)Nc1c(C(N)=O)nn(Cc2ccccn2)c1CC |
| 201 to 203 | CC(C)N(Cc1ccc(COc2cccc3c2CN(C2CCC(=O)NC2=O)C3=O)cc1)C(C)C (centres undefined) |
| 206 to 208 | O=C(CC1C2CC3CC(C2)CC1C3)Nc1cccc2[nH]ccc12 (centres undefined) |
| 183 to 184 | CCCN=C(N)Nc1ccnc(OCCCO)n1 |
| 221 | COc1ccc(NC(=O)c2ccc([N+](=O)[O-])cc2NC(=O)c2ccc(C(C)(C)C)cc2)cc1 |
| 205 to 212 | CC(C)CC(NCC(=O)NOCc1ccccc1)C(=O)NC(Cc1ccc2ccccc2c1)C(=O)NC(C)C(N)=O (centres undefined) |
| 70 to 72 | O=C1OC(c2ccccc2)=NC1Cc1ccccc1 (racemic) |
| 131 to 134 | CCOC(=O)c1cnn(-c2c(Cl)cc(C(F)(F)F)cc2Cl)c1N |

| melting point [°C] | Structure (SMILES) |
| --- | --- |
| 226 to 229 | O=C(O)/C=C/c1nncn1-c1ccc(F)cc1 |
| 176 to 179 | CC(C(=O)O)c1ccc2c(-c3ccc(Cl)cc3)noc2c1 (centres undefined) |
| 215 | CCCCc1nc(Sc2ccccc2)c(CO)n1Cc1ccc(-c2ccccc2C(=O)O)cc1 |
| 132 to 134 | Cc1cc(N)n(-c2c(Cl)cc(Cl)cc2Cl)n1 |
| 137 | CC#CC(O)(Cn1cncn1)c1ccc(Oc2ccc(Cl)cc2)cc1C(F)(F)F (centres undefined) |
| 101 to 103 | CCOC(=O)C1=C(C)NC(OC)=NC1c1cccc([N+](=O)[O-])c1 (centres undefined) |
| 140 | Cc1ccc2c(c1)C(C(=S)Nc1c(C(C)C)cccc1C(C)C)c1ccccc1CO2 (centres undefined) |
| 38 to 39 | CN(C)Cc1ccc(CN)cc1 |
| 127 | O=C1Cc2cc(F)ccc2N1CCCl |
| 157 to 158 | CCc1cc([N+](=O)[O-])c(=O)[nH]c1COCc1ccccc1 |
| 155 to 157 | Cn1c(C(F)(F)F)cc(=O)n(-c2cc([N+](=O)[O-])c(C#N)cc2F)c1=O |
| 25.5 to 27 | CCC1(C)Cc2ccc(C)cc2C1=O (centres undefined) |
| 42 to 43 | CCCc1ccc(CCCCCCCC(=O)O)cc1 |
| 93 to 95 | O=C(COc1ccc(-c2ccccc2)cc1Br)c1ccccc1 |
| 124 to 126 | CS(=O)(=O)N=C(Oc1ccccc1)Oc1ccccc1 |
| 130 to 132 | CNc1cccc(N)c1C(N)=O |
| 179 to 181 | COc1ccc2[nH]c(-c3cccc(F)c3)cc(=O)c2c1OP(=O)(O)O |
| 332 | COc1ccc2c(c1)[nH]c(=O)c(=O)n2C |
| 86 to 87 | S=C=Nc1cc(Cl)ccc1N1CCOCC1 |
| 229 to 230 | O=[N+]([O-])c1cn2c(n1)O[C@@H](COc1ccc(N3CCN(Cc4ccc(Oc5ccc(C(F)(F)F)cn5)cc4)CC3)cc1)CC2 |
| 112 to 113 | CC(=O)CSc1nc2ccccc2[nH]1 |
| 85 to 87 | O=[N+]([O-])c1cccc(-n2cccn2)c1 |
| 180 | CCCC(=O)Nc1cc(Sc2ccccc2)ccc1NC(=NC(=O)OC)NC(=O)OC |
| 128 | CC(C)c1cccc(S(=O)(=O)n2c(CCCC(=O)O)cc3cc(Cl)ccc32)c1 |

| melting point [°C] | Structure (SMILES) |
| --- | --- |
| 90 to 91 | Cc1cccc(-c2nnc(-c3ccccc3Cc3ccccc3)nn2)c1 |
| 91 to 95 | CC1=Nc2c(C)nn(CC(F)(F)F)c2C2=NC(C)CN12 (centres undefined) |
| 55 to 56.5 | C=CCc1cccc(CC(NC(C)=O)C(=O)OCc2ccccc2)c1 (centres undefined) |
| 144 to 145 | Cc1cc(C)c(C(=O)COc2ccc(C(=O)C(=O)O)cc2)c(C)c1 |
| 157 | COC(=O)CCN1CCCC2(Cc3ccc(Br)cc3)C(=O)N(c3cc(Cl)nc(Cl)c3)C(=O)N12 (centres undefined) |
| 184 to 187 | CC1(C)Oc2ccc(C#N)cc2C(Nn2ccccc2=O)C1(C)O (centres undefined) |
| 228 | COc1cc2c(Cl)c(C(N)=O)cnc2cc1F |
| 115 to 117 | CS(=O)(=O)OC1=C(C(=O)O)N2C(=O)[C@@H](NC(=O)Cc3ccccc3)[C@H]2CN1 (racemic) |
| 170 to 171 | NS(=O)(=O)c1cccc(C(O)CO)c1 (centres undefined) |
| 111 to 112 | COC(=O)c1cc(C)c(C(OC(=O)C(Cc2ccccc2)NS(=O)(=O)c2ccc(C)cc2)c2cc(-n3ccnc3)ccc2C)c(C)c1 (centres undefined) |
| 94 to 96 | CN(C)CC1CNc2ccc(Cl)cc2C1 (centres undefined) |
| 181 to 183 | COc1ccc2c(c1)c(CC(=O)NO)c(C)n2C(=O)c1ccc(Cl)cc1 |
| 122 to 129 | CCCOc1ccc(S(=O)(=O)Cl)cc1C(N)=O |
| 173 to 174 | CCOCc1nc2c(N)nc3ccccc3c2n1CC1CCN(C)O1 (centres undefined) |
| 141 to 142 | CC(=O)Oc1ccc(Cl)c2c(=O)c3ccccc3sc12 |
| 112 to 114 | O=C1NCCc2c(OCCCN3CCCCC3)cccc21 |
| 230 to 232 | COc1nc2cc(Cl)c(Cl)c(C(=O)O)c2nc1OC |
| 138 to 140 | COc1ccc(OC)c2c1COC(c1ncc(S(=O)(=O)c3ccc(C)cc3)o1)C2 (centres undefined) |
| 85 to 87 | Clc1ccc(COCCOc2ccc(-c3ccccc3)cc2)cc1 |
| 214 to 215 | Oc1ccc(-c2nc(-c3ccc(F)cc3)c(-c3ccncc3)[nH]2)cc1 |
| 101 to 103 | NNc1ccc(OCc2ccccc2)cc1 |
| 112 to 113 | CC(C)NC(=C1Sc2ccccc2C1=O)c1ccccc1 |
| 145 to 146 | COc1ccc(Cn2cnc3c(-c4ccco4)nc(OC(C)C)nc32)cc1 |
| 115 to 118 | COC(=O)CC1CCN(C(=O)N2CCC(c3ccc(C#N)cc3)CC2)CC1 |

| melting point [°C] | Structure (SMILES) |
| --- | --- |
| 125 to 126 | CCOC(=O)C1=C(C)NC(CO)=C(C(=O)OCC)C1c1cccs1 (centres undefined) |
| 220 | CS(=O)c1cc(CCC(=O)OC(C)(C)C)cc(-c2nc(=O)c3ccccc3s2)n1 (centres undefined) |
| 68.7 to 69 | Cc1ccc(-c2cc(CN3CCN(C(=O)OC(C)(C)C)CC3)c(=O)n(CC(C)C)n2)cc1F |
| 134 to 136 | CCCN1CCC(C(=O)Nc2ccc(CN(C)C3CCOCC3)cc2)=Cc2cc(Br)ccc21 |
| 129 | O=C1N(c2cc(Cl)cc(Cl)c2)C(=O)C2(Cc3ccc(Br)cc3)CCCCN12 (centres undefined) |
| 218 to 219 | O=C(O)Cc1c(C(=O)c2cc(CO)ccn2)[nH]c2ccc(Cl)cc12 |
| 80 to 82 | COc1ccc(Cn2c(=O)c3cccnc3n(CCCCBr)c2=O)cc1 |
| 165 to 167 | CC(C)(C)OC(=O)Nc1ccsc1NC(=O)OC(C)(C)C |
| 301 to 307 | O=C(O)c1ccc(-c2nnc(-c3ccc(OC(F)(F)C(F)(F)F)cc3)o2)cc1 |
| 191 to 193 | CCS(=O)(=O)CCC(=O)NNC(=O)N1Cc2ccccc2Oc2ccc(F)cc21 |
| 192 to 194 | Cc1ccc(S(=O)(=O)Cc2c(-c3cc([N+](=O)[O-])cc([N+](=O)[O-])c3)nn(C)c2O)cc1 |
| 134 to 136 | CCOCCOc1ccccc1COc1ccc2c(c1)C=C(C(=O)O)CCS2(=O)=O |
| 139 to 140 | Cc1nnc(-c2ccnc(NCc3cccnc3)c2)o1 |
| 150 to 151 | COc1cc(C(=O)Cc2ccccc2C)cc([N+](=O)[O-])c1O |
| 67 to 68 | O[C@H]1c2cc(Oc3ccccn3)ccc2OC[C@H]1Cc1cccnc1 (relative stereo) |
| 211 to 212 | COc1cn(-c2cc(F)c(N3CCOCC3)cc2F)nc(-c2ccnn2-c2ccccc2)c1=O |
| 167 | COc1cc(O)c(C(=O)C=Cc2ccc(Cl)cc2)c(OC)c1 |
| 205 to 206 | CC(Cl)C(=O)c1ccc2c(c1)CCC(=O)N2 (centres undefined) |
| 211 to 212 | Cc1cccc(-c2nc3cccnn3c2-c2ccnc(NC(=O)c3ccc(Cl)cc3)c2)c1 |
| 350 | Cn1cc(-c2cc3nccnc3[nH]2)c2cc(C(=O)O)ccc21 |
| 91 to 93 | CCCCCOC(=O)NS(=O)(=O)CCc1cc(OCCCC)nn1Cc1ccc(Cl)cc1Cl |

| Structure (SMILES) | melting point [°C] |
| --- | --- |
| CC(C)(CO)NC(=O)c1nn(-c2ccc(F)cc2)c2c1C1CCC2CC1 | 165 to 168 |
| CCC1N=C(c2ccccc2Cl)c2cc(CCC(=O)O)sc2-n2c(C)nnc21 (centres undefined) | 218 to 220 |
| CC1(C)CCC(C)(C)c2c(O)cc(Br)cc21 | 93 |
| O=C(NC1C(=O)N(CC23CC4CC(CC(C4)C2)C3)c2ccccc2N(c2ccccc2)C1=O)Oc1ccccc1 (centres undefined) | 205 to 207 |
| Cc1cccc2c(Nc3cccc(OCCCCN(CCCl)CCCl)c3)c3cccc(C(=O)NCCN(C)C)c3nc12 | 131 to 132 |
| COc1ccc(C=CC(=O)CC(=O)C=Cc2ccc(OC)c(OC)c2)cc1OC | 129 to 131 |
